Here are results for ten compounds from article PMC6423055, “Cathelicidins PMAP-36, LL-37 and CATH-2 are similar peptides with different modes of action” (Scientific Reports, 2019).

Read-outs that look alike come from different tables or passages of the source. Positions of bridges follow the written chain, without caps; N, C: chain ends. Chains are numbered I, II in the order given. No end group written: not given here.

Data set [1] relates to RAW264.7 cells. In words: Cell viability, WST-1 assay. As to conditions: WST-1, 24 h, peptide up to 40 μM, no peptide = 100% viability.
Data set [2] has as its system porcine red blood cells. In words: Hemolysis (heme release). The conditions noted are these: peptide 0.63–40 μM, 60 min 37 °C, A405, 0.2% Triton X-100 = 100% lysis, N = 5–7.
Data set [3] relates to porcine PBMCs. Briefly: Cell viability, WST-1 assay. The conditions noted are these: WST-1, 24 h, effect at 20–40 μM, N = 6.
Data set [4] relates to Escherichia coli O78. The data set is classed as cell-based. As to the method: Escherichia coli O78 (E. coli) (Clinical isolate, Zoetis Animal Health, Kalamazoo, MI, USA) was grown in Mueller Hinton Broth (MHB) (Becton Dickinson, USA) to mid-logarithmic phase under constant shaking (200 RPM) at 37 °C. Antimicrobial activity of the peptides was tested using the colony count assay as described before. […] Next, 10-fold dilutions were made, of which 100 μl of the dilutions was spread to tryptic soy agar (TSA) (Oxoid, Basingstoke, UK) plates. Plates were incubated overnight at 37 °C and colonies were counted to determine the number of surviving bacteria. Minimal Bactericidal Concentration (MBC) was defined as ≤100 CFU/ml, the detection limit of the assay.
(§1) For transmission electron microscopy (TEM), E. coli was used in a higher concentration, (5*10^8 CFU/ml). […] E. coli was incubated with the peptides at MBC concentration or sub-MBC concentration (4x below MBC concentration). After 60 min at 37 °C, fixative (4% glutaraldehyde, 5 mM CaCl2, 10 mM MgCl2 (all from Merck, Darmstadt, Germany) in 0.1 M sodium cacodylate buffer (Sigma) pH 7.4) was added 1:1 to the bacterial-peptide mixture and left for fixation overnight at 4 °C. Samples were washed three times in 0.1 M sodium cacodylate buffer and resuspended in 4% low melting point agarose (Sigma). Samples were post-fixed with 1% osmium tetroxide (Electron Microscopy Sciences (EMS), Hatfield, PA, USA), 1.5% K3Fe(CN)6 (Merck) and 65 mM sodium cacodylate buffer for 2 hours at 4 °C to improve the contrast. After extensive washing with distilled water (5 × 10 min), samples were incubated for 60 min with 0.5% uranyl acetate (EMS) at 4 °C to improve cytoplasmic contrast. After washing with distilled water (3 × 10 min), samples were dehydrated with increasing concentration ethanol and embedded in Epon. […] Morphological effects were quantified for around 100 cells per condition.

Data set [5] deals with LPS-induced NO production by RAW264.7 cells. The data set is classed as cell-based, murine. The conditions noted are these: 100 ng/ml LPS O111:B4, 24 h, Griess assay, compared with full-length PMAP-36.
The test system of data set [6] is LPS-induced TNFα secretion by RAW264.7 cells. In words: LPS stimulation, TNFα release (ELISA). The class given is cell-based, murine. As to conditions: for LPS neutralization, TNFα secretion: compared with full-length PMAP-36.
Data set [7] has as its system Escherichia coli O78. The conditions noted are these: for Antibacterial activity against E. coli O78 compared with parent or dimeric counterpart: N = 3–7; for Minimal Bactericidal Concentration (MBC): O78, 3 h.
The nature of data set [8]: Isothermal titration calorimetry, peptide binding to LPS. More on the design: species or system Escherichia coli. The conditions noted are these: ITC, 37 °C. Here is the method: Isothermal titration calorimetry (ITC) was performed with the Low Volume NanoITC (TA Instruments-Waters LLC, New Castle, DE, USA) to determine interaction between LPS and the different peptides. 100 μM UltraPure LPS E. coli O111:B4 was diluted in MilliQ, after which 4x dilution in dPBS (Gibco) was made. Peptides were diluted to 800 μM in MilliQ, followed by 4-fold dilution in dPBS. The chamber was filled with 164 μl LPS, the peptide was titrated into the chamber with 1.96 μl every 300 seconds. Experiments were performed at 37 °C and analyzed using the Nano Analyze software (TA instruments-Waters LLC). All experiments were performed 2 times and corrected for buffer in buffer titration, after which the both experiments were averaged. Two independent models were used, except for LL-37 with one independent model fit, to determine the peptide-LPS interaction.

Data set [9] relates to Escherichia coli O78. In words: Transmission electron microscopy of peptide-treated bacteria. As to conditions: TEM, 5*10^8 CFU/ml, 60 min 37 °C. The data set is classed as cell-based. As to the method:
as §1

With `CC[C@H](C)[C@H](NC(=O)[C@H](CCCCN)NC(=O)[C@H](CCC(=O)O)NC(=O)[C@H](CCCCN)NC(=O)[C@H](CO)NC(=O)[C@H](CCCCN)NC(=O)[C@H](CCCNC(=N)N)NC(=O)[C@H](Cc1ccccc1)NC(=O)[C@H](Cc1ccccc1)NC(=O)[C@H](CC(=O)O)NC(=O)CNC(=O)[C@H](CC(C)C)NC(=O)[C@@H](N)CC(C)C)C(=O)NCC(=O)N[C@@H](CCCCN)C(=O)N[C@@H](CCC(=O)O)C(=O)N[C@@H](Cc1ccccc1)C(=O)N[C@@H](CCCCN)C(=O)N[C@@H](CCCNC(=N)N)C(=O)N[C@H](C(=O)N[C@H](C(=O)N[C@@H](CCC(N)=O)C(=O)N[C@@H](CCCNC(=N)N)C(=O)N[C@H](C(=O)N[C@@H](CCCCN)C(=O)N[C@@H](CC(=O)O)C(=O)N[C@@H](Cc1ccccc1)C(=O)N[C@@H](CC(C)C)C(=O)N[C@@H](CCCNC(=N)N)C(=O)N[C@@H](CC(N)=O)C(=O)N[C@@H](CC(C)C)C(=O)N[C@H](C(=O)N1CCC[C@H]1C(=O)N[C@@H](CCCNC(=N)N)C(=O)N[C@H](C(=O)N[C@@H](CCC(=O)O)C(=O)N[C@@H](CO)C(=O)O)[C@@H](C)O)C(C)C)[C@@H](C)CC)C(C)C)[C@@H](C)CC` [LL-37], the “Cytotoxicity against RAW264.7 cells” value in data set [1] is “mildly cytotoxic”. In addition, the “Hemolysis of porcine erythrocytes” value in [2] is listed as “less than 10%”. Also, the “Cytotoxicity against porcine PBMCs” value in data set [3] is “not”. Also, in data set [4] (5*10^8 CFU/ml E. coli O78, density used for TEM), the “MBC at higher density of bacteria” value worked out at 160 µM.

With “Ac-GRFRRLRKKTRKRLKKIGKVLKWIPPIVGSIPLGS [mP1]”, the “LPS neutralization, NO production” value in data set [5] is recorded as “as efficient as the full-length peptide”. Besides, the “LPS neutralization, TNFα secretion” value in data set [6] (100 ng/ml LPS O111:B4, 24 h) is “as efficient as the full-length peptide”. In addition, the “Antibacterial activity against E. coli O78 compared with parent or dimeric counterpart” value in data set [7] (10^6 CFU/ml, 3 h 37 °C) is “slightly increased compared to their dimeric counterparts”.

“I: Ac-RKKTRKRLKKIGKVLKWIPPIVGSIPLGCG / II: Ac-RKKTRKRLKKIGKVLKWIPPIVGSIPLGCG (disulfide I:29-II:29) [Peptide P7]”: the “LPS neutralization, NO production” value in data set [5] was “as strongly inhibited”. For the same compound, the “LPS neutralization, TNFα secretion” value in data set [6] (100 ng/ml LPS O111:B4, 24 h) is “as strongly inhibited”. Further, the “Antibacterial activity against E. coli O78 compared with parent or dimeric counterpart” value in data set [7] (10^6 CFU/ml, 3 h 37 °C) was “slightly more efficient than the full-length peptide”.

As to RFGRFLRKIRRFRPKVTITIQGSARF-NH2 [CATH-2], the “Minimal Bactericidal Concentration (MBC)” value in [7] was 5 to 10 µM. In data set [4] (O78, 3 h), the “MBC at higher density of bacteria” value turned out to be 40 µM.

Take Ac-KIGKVLKWIPPIVGSIPLGS [mP16]: the “Antibacterial activity against E. coli O78 compared with parent or dimeric counterpart” value in [7] (10^6 CFU/ml, 3 h 37 °C) is recorded as “lost its antibacterial activity completely”.

In the case of “Ac-KRLKKIGKVLKWIPPIVGSIPLGCG (disulfide (positions not given here)) [Peptide P12, PMAP-36 analog with N-terminal truncation of 11 amino acids]”, in data set [5], the “LPS neutralization, NO production” value is reported as “as strongly inhibited”. Further, in data set [6] (100 ng/ml LPS O111:B4, 24 h), the “LPS neutralization, TNFα secretion” value is given as “as strongly inhibited”. In addition, the “Antibacterial activity against E. coli O78 compared with parent or dimeric counterpart” value in data set [7] (10^6 CFU/ml, 3 h 37 °C) is listed as “slightly more efficient than the full-length peptide”.

As for “I: Ac-KIGKVLKWIPPIVGSIPLGCG / II: Ac-KIGKVLKWIPPIVGSIPLGCG (disulfide I:20-II:20) [Peptide P16]”, the “LPS binding” value in [8] is given as “still bound strongly to LPS”. The “LPS neutralization, NO production” value in data set [5] is reported as “completely lost its LPS neutralizing capacity”. Further, the “LPS neutralization, TNFα secretion” value in [6] (100 ng/ml LPS O111:B4, 24 h) is given as “completely lost its LPS neutralizing capacity”. For the same compound, the “Minimal Bactericidal Concentration (MBC)” value in data set [7] is above 40 µM.

As for “I: Ac-GRFRRLRKKTRKRLKKIGKVLKWIPPIVGSIPLGCG / II: Ac-GRFRRLRKKTRKRLKKIGKVLKWIPPIVGSIPLGCG (disulfide I:35-II:35) [PMAP-36]”, the “Morphological changes of E. coli O78 at sub-MBC” value in [9] (4x below MBC (PMAP-36 5 μM, CATH-2 10 μM, LL-37 40 μM)) was “release of small vesicles”. The “Morphological changes of E. coli O78 at MBC” value in data set [9] (MBC (PMAP-36 20 μM, CATH-2 40 μM, LL-37 160 μM)) is “DNA and ribosomes were clustered and located close to the inner membrane”. Besides, the “LPS binding” value in data set [8] is “strong LPS binding capacity”. Further, the “Concentration completely blocking TNFα secretion” value in [6] (100 ng/ml LPS O111:B4, 24 h, N = 3) is 10 µM. Moreover, in data set [6] (100 ng/ml LPS O111:B4, RAW264.7, 24 h, read-out: Concentration reducing LPS-induced macrophage activation for 50%), the IC50 is 5 µM. In data set [7] (10^6 CFU/ml, 3 h 37 °C, vs no peptide control, N = 3–4), the “Concentration giving significant inhibition of E. coli O78” value is 2.5 µM. Besides, the “Minimal Bactericidal Concentration (MBC)” value in data set [7] lay in the range of 5 to 10 µM. For the same compound, the “MBC at higher density of bacteria” value in data set [4] (O78, 3 h) came to 20 µM.

For Ac-KRLKKIGKVLKWIPPIVGSIPLGS [mP12], the “LPS neutralization, NO production” value in data set [5] is “strongly reduced LPS neutralizing capacity”. Moreover, the “LPS neutralization, TNFα secretion” value in data set [6] (100 ng/ml LPS O111:B4, 24 h) is on record as “strongly reduced LPS neutralizing capacity”. The “Antibacterial activity against E. coli O78 compared with parent or dimeric counterpart” value in data set [7] (10^6 CFU/ml, 3 h 37 °C) is reported as “identical to P12”.

With Ac-RKKTRKRLKKIGKVLKWIPPIVGSIPLGS [mP7], in data set [5], the “LPS neutralization, NO production” value is “strongly reduced LPS neutralizing capacity”. The “LPS neutralization, TNFα secretion” value in [6] (100 ng/ml LPS O111:B4, 24 h) is given as “strongly reduced LPS neutralizing capacity”. In addition, in [7] (10^6 CFU/ml, 3 h 37 °C), the “Antibacterial activity against E. coli O78 compared with parent or dimeric counterpart” value was “slightly increased compared to their dimeric counterparts”.
